Results as given in patent publication US4098823A, “Monospiroalkyl derivatives of prostaglandins” (Miles Laboratories, Inc., priority 1977, dated 1978).

Key:
Gastric Secretion = test: Effects on Gastric Secretion in the Rat; format: in vivo; conditions: pylorus-ligated rat, subcutaneous, 2 x 1.5 mg/kg (total 3.0 mg/kg), 4 hours
Protocol: A procedure based on that described by Lipmann (J. Pharm. Pharmacol., 21:335 [1968]) was used to assess the influence of test compounds on gastric secretion. Rats of one sex weighing 150 to 200 g were randomly divided into groups of six animals each and fasted for 48 hours previously to the experiments, water being available adlibitum. The animals were anesthetized with ether, the abdomen was opened through a midline incision and the pylorus was ligated. Test compounds were diluted from stock solution so as to administer a dose of 1.5 mg/kg in a volume equivalent to 1 ml/kg. Subcutaneous injections were applied immediately after surgery and again 2 hours later, so that a total dose of 3.0 mg/kg was administered. Dilutions were made with phosphate buffer (pH 7.38) as recommended by Lee et al. (Prostaglandins 3:29 [1973]), in order to insure adequate stability of drugs at the subcutaneous depot. Each compound was tested in one group of rats; an additional control group received only the vehicle.
Four hours after pyloric ligation the animals were killed with ether, the cardias ligated and the stomachs removed. The volume of gastric secretion was measured and the contents centrifuged at 500 rpm for 10 minutes. Total acid in the supernatant was titrated against a 0.1 N sodium hydroxide solution and the amount expressed in mEq.
Volume and total acid values of the treated group were compared with those of the controls by the "T" test. Antisecretory activity was scored according to the following scale: […]

chick rectum = test: Cascade Assay, rectum (smooth muscle stimulant effect); format: cell-based; conditions: superfused, 50% of maximum (PGE1)
Protocol: (§1) The smooth muscle stimulant effects of test compounds were determined simultaneously in four different tissues that are known to be reactive to naturally occurring prostaglandins. Segments of rat stomach fundus, rat colon, chick rectum and rabbit aortic strip were obtained as described by: Vane, J. R., Brit. J. Pharmacol., 12: 344 (1957); Regoli, D. and Vane, J. R., Brit. J. Pharmacol., 23: 351 (1964); Mann, M. and West, G. B., Brit. J. Pharmacol., 5: 173 (1950); and Furchgott, R. F. and Bhadrakom, R., J. Pharmacol. Exper. Ther., 108: 129 (1953). One end of each preparation was tied to the bottom of a 10 ml tissue chamber and the other to a force displacement transducer (Grass FT-03) for continuous tension recording. The stomach, colon, and rectum segments were stretched to an initial tension of 1 g, while the aortic strip was subjected to 4 g. All preparations were left undisturbed for 1 hour prior to testing. The chambers were equipped with an external jacket through which water, maintained at 40° C, was circulated. Preparations were arranged one beneath the other in descending order (aorta, stomach, colon and rectum). Provision was made for bathing the four tissues successively so that they were superfused with the same fluid (Gaddum, H. J., Brit. J. Pharmacol., 6: 321 [1953]. The bathing fluid consisted of: Krebs bicarbonate solution aerated with a mixture of 95% O2 and 5% CO2 and warmed at 37° C; atropine sulphate (0.1 mcg/ml), phenoxybenzamine hydrochloride (0.1 mcg/ml), propranolol hydrochloride (3.0 mcg/ml), methysergide maleate (0.2 mcg/ml) and brompheniramine maleate (0.1 mcg/ml) were added to eliminate the possibility of smooth muscle responses being due to stimulation of cholinergic, adrenergic, serotonin or histamine receptors. The fluid was circulated by means of a roller pump and was allowed to drip over the preparations at a rate of 10 ml/minute.
(§2) Test compounds were diluted from stock solutions so as to administer quantities ranging from 0.001 100,000 ng in a volume of 0.5 ml. The compounds were applied by dripping on the uppermost tissue, at intervals of 10 to 20 minutes. Maximal increases in tension after each dose were measured and the results were used to plot dose-response curves. ED50 data (doses necessary to produce a response 50% of maximum) were then calculated graphically for each tissue.
(§3) Activity in each tissue was scored according to the following scale: […]

[1] = test system: Blood Pressure and Heart Rate; test: Effects on Blood Pressure and Heart Rate in the Anesthetized Cat; format: in vivo; conditions: intravenous, 0.01 to 10.0 mcg/kg, scored only on hypotension; for ED (50 mmHg): Felis catus, read-out: Test D Activity Value (ED50 mmHg, decrease in blood pressure);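 on all read-outs here: Anesthetized cats given intravenous doses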
Protocol: The acute effects of test compounds on blood pressure and heart rate were determined in cats of either sex anesthetized with a mixture of pentobarbital sodium (35 mg/kg, i.v.) and barbital sodium (100 mg/kg, i.v.). Cannulas were placed in the trachea to allow adequate spontaneous ventilation, in a femoral artery for blood pressure recording with a strain gage transducer, and in a saphenous vein for drug administration. Heart rate was recorded by means of a cardiotachometer driven by the R wave of the electrocardiogram. After a period of 10 minutes of stable recordings of blood pressure and heart rate, the test compound was administered intravenously at doses increasing from 0.01 to 10.0 mcg/kg, spaced one log and injected at 10 minutes intervals. All doses were injected in a volume of 0.1 ml/kg. Modifications of blood pressure and heart rate induced by the test compound were expressed both in absolute units (mmHg and beats/minutes) and as percent of values recorded immediately before administration of each dose. Biphasic responses were tabulated in the order in which they occur. The direction of the observed changes was also noted (+ for increases and - for decreases).
Activity of compounds in this test was judged only on the basis of the degree of hypotension observed. Thus, the ED50 mmHg (dose decreasing blood pressure by 50 mmHg) was calculated graphically and the compound scored according to the following scale: […]

rat colon = test: Cascade Assay, colon (smooth muscle stimulant effect); format: cell-based; conditions: superfused, 50% of maximum (PGF2α)
Protocol: as §1, §2, §3

rabbit aortic strip = test: Cascade Assay, aorta (smooth muscle stimulant effect); format: cell-based; conditions: superfused, 50% of maximum (PGA2)
Protocol: as §1, §2, §3

Femoral Blood Flow = test: Effects on Femoral Blood Flow in the Dog; format: in vivo; conditions: anesthetized mongrel dog, intraarterial, 0.001 to 10 mcg
Protocol: The peripheral vasodilator or constrictor effects of these compounds were determined in mongrel dogs of either sex, weighing between 10 and 20 kg anesthestized intravenously with 35 mg/kg of sodium pentobarbital. An external iliac artery was dissected immediately above the femoral arch for a length of approximately 5 cm and a previously calibrated, non-connulating electromagnetic flowmeter sensor with a lumen between 2.5 and 3.5 mm was placed snugly around the vessel. Cannulas were placed in a branch of the artery arising distally to the location of the flowmeter sensor for intraarterial drug administrations, in the contralateral femoral artery for systemic blood pressure recordings and in the trachea for artificial respiration with room air. Femoral blood flow and systemic blood pressure were continously recorded with an electromagnetic flowmeter and pressure tranducer, respectively.
After an adequate control period, test compounds were injected intraarterially at one log-spaced doses ranging from 0.001 to 10 mcg., in a volume of 0.5 ml and at 5 to 10 minute intervals. Maximum changes in bloodflow, as well as any variations in blood pressure, were tabulated for each dose in absolute values (ml/min. and mmHg). The calculations were made taking as control values those existing immediately before administration of each dose. The direction of the observed change (plus for increase and minus for decrease) was also noted. The dose changing bloodflow by 100 ml/min (ED100 ml/min) was calculated graphically and was used for scoring activity as follows: […]

Rat Uterus = test: Effects on the Rat Uterus in Vitro; format: cell-based; conditions: in vitro, 29° C, response 50% that of carbachol; for EC50: Rattus norvegicus, read-out: Test F Rat Uterus, Activity Value (ED50)
Protocol: The uterine stimulant effect of test compounds was determined in segments of uterus obtained from rats (140-160 g) pretreated subcutaneously with 1 mg/kg of diethyl-stilbesterol 18 hours before the experiment. The tissues were placed in 10 ml chambers filled with de-Jalon solution at 29° C, were aerated and bubbled with 95% O2 and 5% CO2, and were prepared for isometric recording with force displacement transducers. Preparations were stretched to an initial tension of 1 g and were left undisturbed for 30 minutes. Carbachol (1 mcg/ml) was then added to the bath and a response was recorded. After a 10 minute interval the carbachol procedure was repeated. Responses to increasing concentrations of a test compound (0.001 to 10 mcg/ml with one log intervals) were then recorded every 10 minutes. Preparations were washed four times after each response. All doses of compounds were administered in a 0.1 ml volume. Because it has been observed that the magnitude of the second response to carbachol (approximately 10% greater than the first) is close to the maximal response of the tissue, such value was taken as a measure of the sensitivity of a particular segment. Responses to each concentration of the test compound were expressed in terms of percentage of the second response to carbachol and the ED50 (dose producing a response 50% that of carbachol) was calculated graphically. Activity was scored according to the following scale: […]

rat stomach fundus = test: Cascade Assay, stomach (smooth muscle stimulant effect); format: cell-based; conditions: superfused, 50% of maximum (PGE1)
Protocol: as §1, §2, §3

| Compound | Test B Activity Value (% decrease in acidity, inhibition of gastric secretion) (Gastric Secretion) | Test E Cascade Assay, Rectum, Activity Value (ED50) (chick rectum) | ED (50 mmHg) [1] | Test E Cascade Assay, Colon, Activity Value (ED50) (rat colon) | Test E Cascade Assay, Aorta, Activity Value (ED50) (rabbit aortic strip) | Test C Activity Value (ED100 ml/min, increase in femoral blood flow) (Femoral Blood Flow) | EC50 (Rat Uterus) | Test E Cascade Assay, Stomach, Activity Value (ED50) (rat stomach fundus) | Test D Activity Value (ED50 mmHg, decrease in blood pressure) [1] | Test F Rat Uterus, Activity Value (ED50) (Rat Uterus) |
| --- | --- | --- | --- | --- | --- | --- | --- | --- | --- | --- |
| O=C(O)CCCCCC[C@H]1C(=O)CC[C@@H]1/C=C/[C@H](O)C1CCC2(CCCCC2)CC1 (relative stereo) [TR-4020, dl 7-{5-oxo-2R-[3R-hydroxy-3-(spiro[5.5]undecan-3-yl)-1E-propenyl]cyclopent-1R-yl}heptanoic acid] | 0 (<26) | 0 (>10000) | > 0.01 mg/kg | 0 (>10000) | 0 (>10000) | 0 (>10.0) | > 10 µg/mL | 2 (101 - 1000) |  |  |
| O=C(O)CCCCCC[C@H]1C(=O)CC[C@@H]1/C=C/[C@@H](O)C1CCC2(CCCCC2)CC1 (relative stereo) [TR-4021, dl 7-{5-oxo-2R-[3S-hydroxy-3-(spiro[5.5]undecan-3-yl)-1E-propenyl]cyclopent-1R-yl} heptanoic acid] | 0 (<26) | 0 (>10000) | > 0.01 mg/kg | 0 (>10000) | 0 (>10000) | 0 (>10.0) | > 10 µg/mL | 4 (<10) |  |  |
| COC(=O)CCCCCC[C@H]1C(=O)C[C@@H](O)[C@@H]1/C=C/[C@@H](O)C1CC2(CCC2)C1 [TR-4121, Methyl 7-{3R-hydroxy-5-oxo-2R-[3S-hydroxy-3-(spiro[3.3]hept-2-yl)-1E-propenyl]cyclopent-1R-yl}heptanoate] | 1 (26-50, not significant) | 0 (>10000) | > 0.01 mg/kg | 0 (>10000) | 0 (>10000) | 2 (0.11 - 1.0) | > 10 µg/mL | 0 (>10000) |  |  |
| O=C(O)CCCCCC[C@H]1C(=O)CC[C@@H]1/C=C/[C@@H](O)C1CC2(CCC2)C1 (relative stereo) [TR-4136, dl 7-{5-oxo-2R-[3S-hydroxy-3-(spiro[3.3]hept-2-yl)-1E-propenyl]cyclopent-1R-yl}heptanoic acid] | 1 (26-50, not significant) | 1 (1001 - 10000) | > 0.01 mg/kg | 0 (>10000) | 0 (>10000) | 0 (>10.0) | > 10 µg/mL | 2 (101 - 1000) |  |  |
| COC(=O)CCCCCC[C@H]1C(=O)C=C[C@H]1/C=C/[C@H](O)C1CC2(CCC2)C1 [TR-4127, Methyl 7-{5-oxo-2R-[3R-hydroxy-3-(spiro[3.3]hept-2-yl)-1E-propenyl]cyclopent-3-en-1R-yl}hepanoate] |  | 0 (>10000) |  | 0 (>10000) | 0 (>10000) |  |  | 0 (>10000) | 0 (>10.0) | 0 (>10) |
| O=C(O)CCC/C=C\C[C@H]1C(=O)CC[C@@H]1/C=C/[C@@H](O)C1CC2(CCC2)C1 (relative stereo) [TR-4146, dl 7-{5-oxo-2R-[3S-hydroxy-3-(spiro[3.3]hept-2-yl)-1E-propenyl]cyclopent-1R-yl}hept-5Z-enoic acid] | 0 (<26) |  | > 0.01 mg/kg | 2 (101 - 1000) | 0 (>10000) | 0 (>10.0) | > 10 µg/mL | 1 (1001 - 10000) |  |  |
| O=C(O)CCCCCC[C@H]1C(=O)CC[C@@H]1/C=C/[C@H](O)C1CC2(CCC2)C1 (relative stereo) [TR-4137, dl 7-{5-oxo-2R-[3R-hydroxy-3-(spiro[3.3]hept-2-yl)-1E-propenyl]cyclopent-1R-yl}heptanoic acid] | 3 (51-75) |  | 0.00011 to 0.001 mg/kg | 0 (>10000) | 0 (>10000) | 3 (0.01 - 0.1) | > 10 µg/mL | 1 (1001 - 10000) |  |  |
